For twelve molecules, GI50 and TGI results are on record in PubChem BioAssay (NCI).

Common to all, as to assay: NCI-60 cell line screen, 48 h
Assay [1] deals with HOP-92 NSCLC.
Assay [2] deals with HS 578T breast.
Assay [3] has as its system NCI-H23 lung.
The test system of assay [4] is BT-549 breast.
Assay [5] relates to SK-OV-3 ovarian.
Assay [6] deals with UACC-257 melanoma.
Assay [7] concerns M14 melanoma.
The test system of assay [8] is A498 renal.
Assay [9] concerns MDA-MB-435.
Assay [10] relates to K-562 leukemia.

Structures are written as SMILES.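 Growth conditions: 96-well plates. Treatment: test compound, 48 hours, 5 concentrations. Analysis: linear interpolation between bracketing concentrations; unreached endpoints set to highest concentration. The concentration for 50% growth inhibition is given as GI50. TGI denotes the concentration required for complete inhibition of growth.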

Consider `C=C(C)[C@@H]1CC[C@]2(C(N)=O)CC[C@]3(C)[C@H](CC[C@@H]4[C@@]5(C)C/C(=C/c6cccnc6)[C@H](O)C(C)(C)[C@@H]5CC[C@]43C)[C@@H]12`, for which the GI50 in assay [1] was 6.37 µM; in assay [2], 8.3 µM; in assay [3] it was 4.96 µM; in assay [4] it was 6.36 µM; in assay [5], 5.26 µM; in assay [6], 5.83 µM. Also, the GI50 was 4.86 µM in assay [7], 10.4 µM in [8], 3.77 µM in assay [9] and 3.4 µM in assay [10]. The TGI in assay [1], in assay [2], in [3], in assay [4], in assay [5] and in assay [6] was greater than 100 µM each time. The TGI in [7], in assay [8], in assay [9] and in assay [10] was greater than 100 µM in each case.
For the molecule `COc1ccc2nc(-c3cc4c([nH]c5ccccc54)c(-c4ccc(F)c(F)c4)n3)[nH]c2c1`, the GI50 in [1] was 5.96 µM; in assay [2], 8.68 µM; in assay [3], 6.56 µM; in assay [4] it was 6.3 µM; in [5] it was 17.1 µM; in assay [6], 5.68 µM. Moreover, the GI50 in assay [7] is 4.02 µM; in assay [8], 9.84 µM; in [9], 3.69 µM; in assay [10], 3.35 µM. For the same molecule, the TGI in assay [1] was 29.5 µM; in assay [2] it was 41.9 µM; in assay [3] it was 27.5 µM; in assay [4], 22.5 µM; in assay [5], 31.4 µM; in assay [6], 22 µM. Besides, the TGI in assay [7] was 16.9 µM; in assay [8] it was 56.6 µM; in assay [9], 15.4 µM; in assay [10], 24.4 µM.
As to `COc1cc(N2CCC(N3CCN(C)CC3)CC2)ccc1Nc1ncc(Cl)c(Nc2ccccc2S(=O)(=O)C(C)C)n1`, the GI50 in assay [1] is 0.0476 µM; in [2], 1.35 µM; in assay [3] it was 1.05 µM; in assay [4], 2.09 µM; in assay [5], 1.83 µM; in assay [6], 1.23 µM. Also, the GI50 in assay [7] is 1.16 µM; in [8], 0.263 µM; in [9], 0.387 µM; in [10], 1.67 µM. Also, the TGI in [1] came out at 0.433 µM; in assay [2], 5.07 µM; in assay [3], 8.1 µM; in [4] it was 5.6 µM; in assay [5], 4.02 µM; in assay [6] it was 2.58 µM. Also, the TGI is 2.51 µM in assay [7], 1.73 µM in assay [8], 2.36 µM in assay [9] and 5.41 µM in [10].
`CCN(CC)CC[n+]1cc2cc(OC)c(OC)cc2c2ccc3cc4c(cc3c21)OCO4`: the GI50 in assay [1] is 1.37 µM; in assay [2], 0.604 µM; in assay [3], 0.618 µM; in [4], 1.11 µM; in assay [5] it was 0.52 µM; in assay [6] it was 1.45 µM. Moreover, the GI50 in assay [7] was 0.654 µM; in assay [8] it was 0.514 µM; in assay [9], 0.675 µM; in assay [10], 0.288 µM. Further, the TGI in assay [1] amounted to 3.88 µM; in [2], 5.54 µM; in assay [3] it was 2.3 µM; in assay [4] it was 2.88 µM; in assay [5], 2.08 µM; in [6], 3.36 µM. Also, the TGI in assay [7] was found to be 2.31 µM; in assay [8], 2.92 µM; in assay [9], 2.14 µM.
For `O=C(O)CCSC(=S)Nc1ccc([N+](=O)[O-])cc1`, the TGI in assay [1] was 68.9 µM; in assay [2] it was greater than 100 µM; in [3], greater than 100 µM; in [4], greater than 100 µM; in assay [5], greater than 100 µM; in assay [6], 55.1 µM. In addition, the TGI in assay [7] is greater than 100 µM; in assay [8] it was greater than 100 µM; in assay [9] it was 61.3 µM; in assay [10], greater than 63 µM.
As to `Cc1ccc(C2=NN(c3ccc(S(N)(=O)=O)cc3)C(c3cn(-c4ccccc4)nc3-c3ccccc3)C2)cc1` (centres undefined), the GI50 is 3.33 µM in assay [1]; 18.3 µM in [2]; 14.1 µM in assay [3]; 3.85 µM in assay [4]; greater than 100 µM in assay [5]; 29.6 µM in assay [6]. Besides, the GI50 in assay [7] is 8.54 µM; in [8], 1.84 µM; in assay [9], 10 µM; in assay [10], 3.82 µM. The TGI in assay [1] is 22.2 µM; in assay [2], greater than 100 µM; in [3] it was greater than 100 µM; in [4], 61.6 µM; in assay [5], greater than 100 µM; in [6] it was greater than 100 µM. Besides, the TGI in assay [7] is greater than 100 µM; in assay [8], 5.19 µM; in assay [9], greater than 100 µM; in assay [10], greater than 100 µM.
For `C=CCSSc1ncnc2c1ncn2C1OC(CO)C(O)C1O` (centres undefined), the GI50 in assay [1] was 0.222 µM; in assay [2], 14.5 µM; in assay [3], 3.94 µM; in assay [4], 3.67 µM; in assay [5], 0.501 µM; in assay [6], 6.79 µM. Besides, the GI50 in assay [7] was 0.536 µM; in assay [8] it was 39.3 µM; in assay [9], 2.38 µM; in [10], 1.2 µM. The TGI in assay [1] was 4.98 µM; in assay [2], greater than 93.5 µM; in [3] it was greater than 74.2 µM; in [4], greater than 100 µM; in assay [5], greater than 87.2 µM; in assay [6], greater than 86.1 µM. Besides, the TGI was greater than 100 µM in assay [7], greater than 100 µM in [8], greater than 100 µM in assay [9] and greater than 39.4 µM in [10].
Turning to `Cc1cc(N(CCOS(C)(=O)=O)CCOS(C)(=O)=O)ccc1C=Nc1ccc(-c2csc(-c3ccc(Br)cc3)n2)cc1`, the TGI in assay [1] is 38.3 µM; in assay [2] it was greater than 97.3 µM; in assay [3], 41.7 µM; in assay [4] it was greater than 76.4 µM; in assay [5], 15.6 µM; in assay [6], 56.8 µM. In addition, the TGI was 50.1 µM in assay [7], 6.4 µM in assay [8], 58.8 µM in assay [9] and greater than 97.1 µM in assay [10].
Consider `C[C@@H]1OCC2(CCN(c3cnc(Sc4ccnc(N)c4Cl)c(N)n3)CC2)[C@@H]1N`, for which the GI50 is 0.0469 µM in assay [1]; 61.8 µM in [2]; 1.34 µM in assay [3]; 34.6 µM in assay [4]; 1.04 µM in assay [5]; greater than 100 µM in assay [6]. In addition, the GI50 is greater than 100 µM in assay [7], 0.128 µM in assay [8], greater than 100 µM in assay [9] and 0.397 µM in assay [10]. Moreover, the TGI in [1] was 0.788 µM; in assay [2], greater than 100 µM; in assay [3], greater than 100 µM; in [4], greater than 100 µM; in assay [5], greater than 100 µM; in assay [6] it was greater than 100 µM. The TGI in assay [7] was greater than 100 µM; in assay [8] it was 4.6 µM; in assay [9] it was greater than 100 µM; in [10] it was greater than 100 µM.
As to `CCCCCC/C=C1\CCC(CN(C)C)C1=O` (centres undefined), the TGI in assay [1] stood at 28.8 µM; in assay [2], 40.3 µM; in assay [3], 23.2 µM; in [4] it was 53.1 µM; in assay [5], 34.7 µM; in [6], 17.7 µM. For the same molecule, the TGI in [7] came to 16.7 µM; in assay [8], 32.1 µM; in [9], 21.6 µM; in assay [10] it was 7.64 µM.
Consider `CCOCCOC[C@H]1CCCN(c2ccnc3sc(C(N)=O)c(N)c23)C1`, for which the GI50 was 44.3 µM in [1]; 44.1 µM in assay [2]; 10.6 µM in assay [3]; 9.35 µM in [4]; 40.3 µM in assay [5]; 12.4 µM in [6]. For the same molecule, the GI50 in assay [7] was 63.1 µM; in assay [8] it was greater than 100 µM; in assay [9] it was 29.8 µM; in assay [10], 8.44 µM. In addition, the TGI in assay [1], in assay [2], in [3], in [4], in [5] and in assay [6] was greater than 100 µM in each case. For the same molecule, the TGI in [7], in [8], in [9] and in [10] was greater than 100 µM each time.
Regarding `C=C1C(=O)O[C@H]2[C@H]1CC/C(COC(=O)NCc1cc(OC)cc(OC)c1)=C\CC[C@@]1(C)O[C@@H]21`, the GI50 in [1] is 1.42 µM; in [2], 4.12 µM; in [3] it was 1.84 µM; in assay [4], 1.57 µM; in [5] it was 12.8 µM; in assay [6] it was 1.54 µM. Besides, the GI50 in [7] was 1.64 µM; in [8] it was 2.11 µM; in assay [9], 1.99 µM; in assay [10], 1.56 µM. The TGI in [1] stood at 3.18 µM; in assay [2] it was 23 µM; in assay [3], 4.32 µM; in [4], 3.07 µM; in [5], 26.1 µM; in [6], 3.7 µM. Moreover, the TGI in assay [7] is 3.87 µM; in assay [8], 5.8 µM; in assay [9] it was 4.11 µM; in assay [10], 5.94 µM.
